Laboratory results as given in patent US12428406B2 (PMV Pharmaceuticals, Inc., priority 2019, dated 2025).

The compounds below were run against T1, p53 Y220C (Homo sapiens, UniProt P04637, Y220C) (assay: In vitro DNA binding activity assay (HTRF / TR-FRET): stabilization of p53 Y220C and increase of its DNA binding activity). Settings: recombinant His-tagged p53 Y220C DNA binding domain (aa 94-312), biotin-labeled consensus DNA, incubated at 27° C. or 29° C. for 60 min.
T1 construct: The recombinant protein was a truncation mutant containing only amino acids 94-312 of p53; made in house; host or cells: E. coli
Assay type: biochemical
In short: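 Stabilization of the mutant is inferred from increased binding of His-tagged p53 Y220C to a biotin-labeled consensus DNA, detected by HTRF with europium-streptavidin and APC-anti-His antibody. The concentration giving a 50% rise over compound-free binding is reported as SC150.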

T1 sequence (P04637 94-312, change not shown): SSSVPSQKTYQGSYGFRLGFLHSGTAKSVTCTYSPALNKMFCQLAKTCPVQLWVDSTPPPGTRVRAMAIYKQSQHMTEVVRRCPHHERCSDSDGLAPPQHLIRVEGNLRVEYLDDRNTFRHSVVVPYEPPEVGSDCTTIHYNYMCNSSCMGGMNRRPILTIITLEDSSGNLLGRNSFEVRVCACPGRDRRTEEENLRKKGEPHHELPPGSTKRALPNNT

Row | SC150 (concentration of the compound required to increase the DNA binding activity by 50%) | SMILES
1 | + (+ = 0 μM ≤ SC150 < 0.05 μM) | COc1cc(C(C)(C)C#N)ccc1NCC#Cc1cc2c(N[C@H]3CC[C@H](N(C)C)CC3)cccc2n1CC(F)(F)F [Compound 121A, 2-(3-methoxy-4-{[3-(4-{[(1R,4R)-4-(dimethylamino)cyclohexyl]amino}-1-(2,2,2-trifluoroethyl)-1H-indol-2-yl)prop-2-yn-1-yl]amino}phenyl)-2-methylpropanenitrile]
2 | + (+ = 0 μM ≤ SC150 < 0.05 μM) | COc1cc(C#N)ccc1NCC#Cc1cc2c(NC3CCC(N4CC5(COC5)C4)CC3)cccc2n1CC(F)(F)F (stereo not shown) [Compound 249A, 3-methoxy-4-[(3-{4-[(4-{2-oxa-6-azaspiro[3.3]heptan-6-yl}cyclohexyl)amino]-1-(2,2,2-trifluoroethyl)-1H-indol-2-yl}prop-2-yn-1-yl)amino]benzonitrile]
3 | + (+ = 0 μM ≤ SC150 < 0.05 μM) | COC(=O)[C@H](CCC(N)=O)NC(=O)c1ccc(NCC#Cc2cc3c(N[C@@H]4CCN(C)C[C@@H]4F)cccc3n2CC(F)(F)F)c(OC)c1 [Compound 956A, methyl (2S)-4-carbamoyl-2-[(4-{[3-(4-{[(3S,4R)-3-fluoro-1-methylpiperidin-4-yl]amino}-1-(2,2,2-trifluoroethyl)-1H-indol-2-yl)prop-2-yn-1-yl]amino}-3-methoxyphenyl)formamido]butanoate]
4 | + (+ = 0 μM ≤ SC150 < 0.05 μM) | CS(=O)(=O)c1ccc(NCC#Cc2cc3c(N[C@H]4CC[C@H](N5CC6(COC6)C5)CC4)cccc3n2CC(F)(F)F)c(O)c1 [Compound 214A, 5-methanesulfonyl-2-{[3-(4-{[(1R,4R)-4-{2-oxa-6-azaspiro[3.3]heptan-6-yl}cyclohexyl]amino}-1-(2,2,2-trifluoro-ethyl)-1H-indol-2-yl)prop-2-yn-1-yl]amino}phenol]
5 | + (+ = 0 μM ≤ SC150 < 0.05 μM) | COCC(O)CN1CCC(Nc2cccc3c2cc(C#CCNc2ccc(C(=O)O)cc2OC)n3CC(F)(F)F)CC1 (stereo not shown) [Compound 705A, 4-{[3-(4-{[1-(2-hydroxy-3-methoxypropyl)piperidin-4-yl]amino}-1-(2,2,2-trifluoroethyl)-1H-indol-2-yl)prop-2-yn-1-yl]amino}-3-methoxybenzoic acid]
6 | ++++ (++++ = 0.2 μM ≤ SC150 < 1 μM) | COc1cc(S(C)(=O)=O)ccc1NCC#Cc1cc2c(N[C@H]3CC[C@H](N(C)C)CC3)cccc2n1CC1CO1 (stereo partly drawn) [Compound 77A, (1R,4R)—N^4-(2-{3-[(4-methanesulfonyl-2-methoxyphenyl)amino]prop-1-yn-1-yl}-1-[(oxiran-2-yl)methyl]-1H-indol-4-yl)-N^1,N^1-dimethylcyclohexane-1,4-diamine]
7 | + (+ = 0 μM ≤ SC150 < 0.05 μM) | CNC(=O)c1ccc(NCC#Cc2cc3c(NC4CCN(CC(O)COC)CC4)cccc3n2CC(F)(F)F)c(OC)c1 (stereo not shown) [Compound 601A, 4-{[3-(4-{[1-(2-hydroxy-3-methoxypropyl)piperidin-4-yl]amino}-1-(2,2,2-trifluoroethyl)-1H-indol-2-yl)prop-2-yn-1-yl]amino}-3-methoxy-N-methylbenzamide]
8 | +++ (+++ = 0.1 μM ≤ SC150 < 0.2 μM) | COc1cc(S(C)(=O)=O)ccc1NCC#Cc1cc2c(NC3CCN(c4nc(C)cs4)CC3)cccc2n1CC(F)(F)F [Compound 719A]
9 | + (+ = 0 μM ≤ SC150 < 0.05 μM) | COCC(O)CN1CCC(Nc2cccc3c2cc(C#CCNc2ccc(S(N)(=O)=O)cc2O)n3CC(F)(F)F)CC1 (stereo not shown) [Compound 634A, 3-hydroxy-4-{[3-(4-{[1-(2-hydroxy-3-methoxypropyl)piperidin-4-yl]amino}-1-(2,2,2-trifluoroethyl)-1H-indol-2-yl)prop-2-yn-1-yl]amino}benzene-1-sulfonamide]
10 | + (+ = 0 μM ≤ SC150 < 0.05 μM) | COc1cc(S(C)(=O)=O)ccc1NCC#Cc1cc2c(N[C@H]3CC[C@H](N4CC5COCC5C4)CC3)cccc2n1CC(F)(F)F (stereo partly drawn) [Compound 432A, 2-{3-[(4-methane-sulfonyl-2-methoxy-phenyl)amino]prop-1-yn-1-yl}-N-[(1R,4R)-4-{hexahydro-1H-furo[3,4-c]pyrrol-5-yl}cyclohexyl]-1-(2,2,2-trifluoroethyl)-1H-indol-4-amine]
11 | + (+ = 0 μM ≤ SC150 < 0.05 μM) | COc1cc(S(=O)(=O)Nc2ccon2)ccc1NCC#Cc1cc2c(N[C@H]3CC[C@H](N(C)C)CC3)cccc2n1CC(F)(F)F [Compound 48A, 3-methoxy-N-(1,2-oxazol-3-yl)-4-{[3-(4-{[(1R,4R)-4-(dimethylamino)cyclo-hexyl]amino}-l-(2,2,2-trifluoroethyl)-1H-indol-2-yl)prop-2-yn-1-yl]amino}benzene-1-sulfonamide]
12 | + (+ = 0 μM ≤ SC150 < 0.05 μM) | CCNC(=O)c1ccc(NCC#Cc2cc3c(N[C@H]4CC[C@H](N(C)CCOC)CC4)cccc3n2CC(F)(F)F)c(OC)c1 [Compound 153A, N-ethyl-3-methoxy-4-((3-(4-((4-((2-methoxyethyl)(methyl)amino)cyclohexyl)amino)-1-(2,2,2-trifluoroethyl)-1H-indol-2-yl)prop-2-yn-1-yl)amino)benzamide]
13 | ++ (++ = 0.05 μM ≤ SC150 < 0.1 μM) | COCC(O)CN1CCC(Nc2cccc3c2cc(C#CCNc2ccc(Cl)cc2OC)n3CC(F)(F)F)CC1 (stereo not shown) [Compound 716A, 1-{4-[(2-{3-[(4-chloro-2-methoxyphenyl)amino]prop-1-yn-1-yl}-1-(2,2,2-trifluoroethyl)-1H-indol-4-yl)amino]piperidin-1-yl}-3-methoxypropan-2-ol]
14 | + (+ = 0 μM ≤ SC150 < 0.05 μM) | COC(=O)c1ccc(NCC#Cc2cc3c(N[C@H]4CCN(C[C@@H](C)O)C[C@H]4F)cccc3n2CC(F)(F)F)c(OC)c1 [Compound 905A, methyl 4-{[3-(4-{[(3R,4S)-3-fluoro-1-(2-hydroxypropyl)piperidin-4-yl]amino}-1-(2,2,2-trifluoroethyl)-1H-indol-2-yl)prop-2-yn-1-yl]amino}-3-methoxybenzoate]
15 | + (+ = 0 μM ≤ SC150 < 0.05 μM) | COc1cc(-c2ncco2)ccc1NCC#Cc1cc2c(NC3CCN(C)CC3)cccc2n1CC(F)(F)F [Compound 506A, 2-(3-{[2-methoxy-4-(1,3-oxazol-2-yl)phenyl]amino}prop-1-yn-1-yl)-N-(1-methylpiperidin-4-yl)-1-(2,2,2-trifluoroethyl)-1H-indol-4-amine]
16 | ++ (++ = 0.05 μM ≤ SC150 < 0.1 μM) | CCOc1cc(S(C)(=O)=O)ccc1NCC#Cc1cc2c(N[C@H]3CC[C@@H](N(C)C)CC3)cccc2n1CC(F)(F)F [Compound 96A, (1S,4S)-N^4-(2-{3-[(2-ethoxy-4-methane-sulfonylphenyl)amino]prop-1-yn-1-yl}-1-(2,2,2-trifluoroethyl)-1H-indol-4-yl)-N^1,N^1-dimethylcyclohexane-1,4-diamine]
17 | + (+ = 0 μM ≤ SC150 < 0.05 μM) | COCC(O)CN1CCC(Nc2cccc3c2cc(C#CCNc2ccc(S(C)(=O)=O)cc2OC)n3CC(F)(F)F)CC1 (stereo not shown) [Compound 569A, 1-{4-[(2-{3-[(4-methanesulfonyl-2-methoxyphenyl)amino]prop-1-yn-1-yl}-1-(2,2,2-trifluoroethyl)-1H-indol-4-yl)amino]piperidin-1-yl}-3-methoxypropan-2-ol]
18 | + (+ = 0 μM ≤ SC150 < 0.05 μM) | COc1cc(C(C)(C)C#N)ncc1NCC#Cc1cc2c(NC3CCS(=O)(=O)CC3)cccc2n1CC(F)(F)F [Compound 1034A, 2-{5-[(3-{4-[(1,1-dioxo-1λ^6-thian-4-yl)amino]-1-(2,2,2-trifluoroethyl)-1H-indol-2-yl}prop-2-yn-1-yl)amino]-4-methoxypyridin-2-yl}-2-methylpropanenitrile]
19 | + (+ = 0 μM ≤ SC150 < 0.05 μM) | COc1cc(C(=O)NC(C)CO)ccc1NCC#Cc1cc2c(N[C@@H]3CCN(C)C[C@@H]3F)cccc2n1CC(F)(F)F (stereo partly drawn) [Compound 1056A, 4-{[3-(4-{[(3S,4R)-3-fluoro-1-methylpiperidin-4-yl]amino}-1-(2,2,2-trifluoroethyl)-1H-indol-2-yl)prop-2-yn-1-yl]amino}-N-(1-hydroxypropan-2-yl)-3-methoxybenzamide]
20 | + (+ = 0 μM ≤ SC150 < 0.05 μM) | COc1cc(S(C)(=O)=O)ccc1NCC#Cc1cc2c(NC3CCCN(C)CC3)cccc2n1CC(F)(F)F (stereo not shown) [Compound 988A, 2-{3-[(4-methanesulfonyl-2-methoxyphenyl)amino]prop-1-yn-1-yl}-N-(1-methylazepan-4-yl)-1-(2,2,2-trifluoroethyl)-1H-indol-4-amine]
21 | + (+ = 0 μM ≤ SC150 < 0.05 μM) | CCC(=O)N1CC[C@@H](Nc2cccc3c2cc(C#CCNc2ccc(S(C)(=O)=O)cc2OC)n3CC(F)(F)F)[C@@H](F)C1 [Compound 864A, 1-[(3S,4R)-3-fluoro-4-[(2-{3-[(4-methanesulfonyl-2-methoxyphenyl)amino]prop-1-yn-1-yl}-1-(2,2,2-trifluoroethyl)-1H-indol-4-yl)amino]piperidin-1-yl]propan-1-one]
22 | + (+ = 0 μM ≤ SC150 < 0.05 μM) | COCC(O)CN1CCC(Nc2cccc3c2cc(C#CCNc2ccc(S(C)(=O)=O)cc2OC(F)(F)F)n3CC(F)(F)F)CC1 (stereo not shown) [Compound 710A, 1-(4-{[2-(3-{[4-methanesulfonyl-2-(trifluoromethoxy)phenyl]amino}prop-1-yn-1-yl)-1-(2,2,2-trifluoroethyl)-1H-indol-4-yl]amino}piperidin-1-yl)-3-methoxypropan-2-ol]
